For the test, the target named is T1, IL-1β (Homo sapiens, UniProt P01584).
T1 construct: purchased BioLegend 579404
The test can be described thus: IL-6 assay in MRC5 cells: inhibition of IL-1β induced IL-6 secretion (AlphaLISA). The class given is cell-based. Particulars: inhibition of IL-1β induced IL-6 secretion in MRC5 cells; read-out: MRC5 IC50. In a few lines:
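Compound was pre-incubated 1 h at ambient temperature with recombinant human IL-1β at 2λ EC80 before adding human lung fibroblast MRC5 cells (3000/well) in EMEM with 0.025% BSA. After overnight culture at 37 °C, 5% CO2, secreted IL-6 in conditioned medium was measured by AlphaLISA; IC50 from 4-parameter logistic fits.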
(In general: Bead proximity is the source of the signal in Alpha formats.)

Our source for the IC50 values is patent US20260242419A1, “A CYCLIC PEPTIDE FOR TRAPPING INTERLEUKIN-1 BETA” (Merck Sharp & Dohme LLC, priority 2023, published 2026).

pIC50: −log10 of the molar value. Starred links: 1 amine or outer side, 2 acyl side, 3 side chain; linkers in the order of their positions; H or OH if unused. Non-standard residues stand in square brackets, D forms with d. Residues, ends and D or L forms follow the SMILES beside them. Phe(4-(5-CO2H-2-pyrimidyl)) = N[C@@H](Cc1ccc(-c2ncc(C(=O)O)cn2)cc1)C(=O)O; Phe(4-(4-Ac-piperazinyl)) = CC(=O)N1CCN(c2ccc(C[C@H](N)C(=O)O)cc2)CC1; dPro(4R-(4-pyridylmethyl)) = O=C(O)[C@H]1C[C@@H](Cc2ccncc2)CN1; Ala(piperidin-4-yl) = O=C([C@H](CC1CCN([*:3])CC1)N[*:1])[*:2]; Trp(βS-Me,4-F) = C[C@@H](c1c[nH]c2cccc(F)c12)[C@H](N)C(=O)O; Bip(4'-COOH) = N[C@@H](Cc1ccc(-c2ccc(C(=O)O)cc2)cc1)C(=O)O; Ala(1-bicyclo(1.1.1)pentyl) = N[C@@H](CC12CC(C1)C2)C(=O)O; dPro(4R-Bzl(4-F)) = O=C(O)[C@H]1C[C@@H](Cc2ccc(F)cc2)CN1; Ala(pyrimidin-5-yl) = N[C@@H](Cc1cncnc1)C(=O)O; Phe(4-COOH) = N[C@@H](Cc1ccc(C(=O)O)cc1)C(=O)O; Pro(cis-4-F) = O=C(O)[C@@H]1C[C@H](F)CN1; Ala(4-THP) = N[C@@H](CC1CCOCC1)C(=O)O; cisHyp = O=C(O)[C@@H]1C[C@H](O)CN1; d(αMeD) = C[C@@](N)(CC(=O)O)C(=O)O; 4Pal = N[C@@H](Cc1ccncc1)C(=O)O; aThr = C[C@H](O)[C@H](N)C(=O)O; αMeD = C[C@](N)(CC(=O)O)C(=O)O; d(αMeS) = C[C@@](N)(CO)C(=O)O; Dab = NCC[C@H](N)C(=O)O; Aib = CC(C)(N)C(=O)O

T1 sequence (P01584 117-269): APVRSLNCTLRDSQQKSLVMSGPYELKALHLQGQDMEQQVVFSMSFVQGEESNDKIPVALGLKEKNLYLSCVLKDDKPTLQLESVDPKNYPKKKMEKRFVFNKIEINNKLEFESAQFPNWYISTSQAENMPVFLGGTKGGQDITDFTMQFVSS

Take `C[C@@H](c1c[nH]c2cccc(F)c12)[C@@H]1NC(=O)[C@@H]2C[C@H](F)CN2C(=O)CNC(=O)[C@H](Cc2ccc(C(=O)O)cc2)NC(=O)[C@H](CC23CC(C2)C3)NC(=O)[C@H](Cc2ccc(-c3ccc(C(=O)O)cc3)cc2)NC(=O)[C@H]2C[C@@H](Cc3ccncc3)CN2C(=O)CNC(=O)[C@H](CO)NC(=O)[C@H](CCC(N)=O)NC(=O)[C@H](CC2CCNCC2)NC(=O)[C@@](C)(CO)NC(=O)[C@H](Cc2c[nH]c3ccccc23)NC(=O)[C@H](CO)NC(=O)C(C)(C)NC1=O` [Example 181] (cyclo([Bip(4'-COOH)][Ala(1-bicyclo(1.1.1)pentyl)][Phe(4-COOH)]G[Pro(cis-4-F)][Trp(βS-Me,4-F)][Aib]SW[d(αMeS)][Ala(piperidin-4-yl)]QSG[dPro(4R-(4-pyridylmethyl))])): the pIC50 (as a rule, −log10 of the IC50, conventionally taken in molar units) is 10.68.

For the compound `C[C@H](O)[C@@H]1NC(=O)C(C)(C)NC(=O)[C@H]([C@@H](C)c2c[nH]c3cccc(F)c23)NC(=O)[C@@H]2C[C@H](O)CN2C(=O)CNC(=O)[C@H](Cc2ccc(C(=O)O)cc2)NC(=O)[C@H](CC23CC(C2)C3)NC(=O)[C@H](Cc2ccc(-c3ccc(C(=O)O)cc3)cc2)NC(=O)[C@H]2C[C@@H](Cc3ccncc3)CN2C(=O)CNC(=O)[C@H](CCN)NC(=O)[C@H](CCC(N)=O)NC(=O)[C@H](Cc2cncnc2)NC(=O)[C@@](C)(CC(=O)O)NC(=O)[C@H](Cc2c[nH]c3ccccc23)NC1=O` [Example 182] (cyclo([Bip(4'-COOH)][Ala(1-bicyclo(1.1.1)pentyl)][Phe(4-COOH)]G[cisHyp][Trp(βS-Me,4-F)][Aib][aThr]W[d(αMeD)][Ala(pyrimidin-5-yl)]Q[Dab]G[dPro(4R-(4-pyridylmethyl))])), the pIC50 was 10.31.

For `CC(=O)N1CCN(c2ccc(C[C@@H]3NC(=O)[C@H]4C[C@@H](Cc5ccc(F)cc5)CN4C(=O)CNC(=O)[C@H](CCN)NC(=O)[C@H](CCC(N)=O)NC(=O)[C@H](Cc4cncnc4)NC(=O)C(C)(C)NC(=O)[C@H](Cc4c[nH]c5ccccc45)NC(=O)[C@H](CO)NC(=O)C(C)(C)NC(=O)[C@H]([C@@H](C)c4c[nH]c5cccc(F)c45)NC(=O)[C@@H]4C[C@H](F)CN4C(=O)CNC(=O)[C@H](Cc4ccc(C(=O)O)cc4)NC(=O)[C@H](Cc4ccncc4)NC3=O)cc2)CC1` [Example 183] (cyclo([Phe(4-(4-Ac-piperazinyl))][4Pal][Phe(4-COOH)]G[Pro(cis-4-F)][Trp(βS-Me,4-F)][Aib]SW[Aib][Ala(pyrimidin-5-yl)]Q[Dab]G[dPro(4R-Bzl(4-F))])), the pIC50 was 10.60.

In the case of `CC(=O)N1CCN(c2ccc(C[C@@H]3NC(=O)[C@H]4C[C@@H](Cc5ccc(F)cc5)CN4C(=O)CNC(=O)[C@H](CCN)NC(=O)[C@H](CCC(N)=O)NC(=O)[C@H](Cc4cncnc4)NC(=O)[C@](C)(CC(=O)O)NC(=O)[C@H](Cc4c[nH]c5ccccc45)NC(=O)[C@H](CO)NC(=O)C(C)(C)NC(=O)[C@H]([C@@H](C)c4c[nH]c5cccc(F)c45)NC(=O)[C@@H]4C[C@H](F)CN4C(=O)CNC(=O)[C@H](Cc4ccc(C(=O)O)cc4)NC(=O)[C@H](Cc4ccncc4)NC3=O)cc2)CC1` [Example 184] (cyclo([Phe(4-(4-Ac-piperazinyl))][4Pal][Phe(4-COOH)]G[Pro(cis-4-F)][Trp(βS-Me,4-F)][Aib]SW[αMeD][Ala(pyrimidin-5-yl)]Q[Dab]G[dPro(4R-Bzl(4-F))])), the pIC50 is 10.85.

For the compound `C[C@@H](c1c[nH]c2cccc(F)c12)[C@@H]1NC(=O)[C@@H]2C[C@H](O)CN2C(=O)CNC(=O)[C@H](Cc2ccc(C(=O)O)cc2)NC(=O)[C@H](CC23CC(C2)C3)NC(=O)[C@H](Cc2ccc(-c3ncc(C(=O)O)cn3)cc2)NC(=O)[C@H]2C[C@@H](Cc3ccncc3)CN2C(=O)CNC(=O)[C@H](CCN)NC(=O)[C@H](CCC(N)=O)NC(=O)[C@H](Cc2cncnc2)NC(=O)C(C)(C)NC(=O)[C@H](Cc2c[nH]c3ccccc23)NC(=O)[C@H](CO)NC(=O)C(C)(C)NC1=O` [Example 185] (cyclo([Phe(4-(5-CO2H-2-pyrimidyl))][Ala(1-bicyclo(1.1.1)pentyl)][Phe(4-COOH)]G[cisHyp][Trp(βS-Me,4-F)][Aib]SW[Aib][Ala(pyrimidin-5-yl)]Q[Dab]G[dPro(4R-(4-pyridylmethyl))])), the pIC50 was 10.37.

Take `C[C@@H](c1c[nH]c2cccc(F)c12)[C@@H]1NC(=O)[C@@H]2C[C@H](F)CN2C(=O)CNC(=O)[C@H](Cc2ccc(C(=O)O)cc2)NC(=O)[C@H](Cc2ccncc2)NC(=O)[C@H](Cc2ccc(-c3ncc(C(=O)O)cn3)cc2)NC(=O)[C@H]2C[C@@H](Cc3ccncc3)CN2C(=O)CNC(=O)[C@H](CCN)NC(=O)[C@H](CCC(N)=O)NC(=O)[C@H](Cc2cncnc2)NC(=O)C(C)(C)NC(=O)[C@H](Cc2c[nH]c3ccccc23)NC(=O)[C@H](CO)NC(=O)C(C)(C)NC1=O` [Example 186] (cyclo([Phe(4-(5-CO2H-2-pyrimidyl))][4Pal][Phe(4-COOH)]G[Pro(cis-4-F)][Trp(βS-Me,4-F)][Aib]SW[Aib][Ala(pyrimidin-5-yl)]Q[Dab]G[dPro(4R-(4-pyridylmethyl))])): the pIC50 is 10.82.

Consider `C[C@@H](c1c[nH]c2cccc(F)c12)[C@@H]1NC(=O)[C@@H]2C[C@H](F)CN2C(=O)CNC(=O)[C@H](Cc2ccc(C(=O)O)cc2)NC(=O)[C@H](Cc2ccncc2)NC(=O)[C@H](Cc2ccc(-c3ncc(C(=O)O)cn3)cc2)NC(=O)[C@H]2C[C@@H](Cc3ccncc3)CN2C(=O)CNC(=O)[C@H](CCN)NC(=O)[C@H](CCC(N)=O)NC(=O)[C@H](Cc2cncnc2)NC(=O)[C@](C)(CC(=O)O)NC(=O)[C@H](Cc2c[nH]c3ccccc23)NC(=O)[C@H](CO)NC(=O)C(C)(C)NC1=O` [Example 187] (cyclo([Phe(4-(5-CO2H-2-pyrimidyl))][4Pal][Phe(4-COOH)]G[Pro(cis-4-F)][Trp(βS-Me,4-F)][Aib]SW[αMeD][Ala(pyrimidin-5-yl)]Q[Dab]G[dPro(4R-(4-pyridylmethyl))])), for which the negative-log IC50 (pIC50) is 10.82.

As for `C[C@@H](c1c[nH]c2cccc(F)c12)[C@@H]1NC(=O)[C@@H]2C[C@H](F)CN2C(=O)CNC(=O)[C@H](Cc2ccc(C(=O)O)cc2)NC(=O)[C@H](CC23CC(C2)C3)NC(=O)[C@H](Cc2ccc(-c3ncc(C(=O)O)cn3)cc2)NC(=O)[C@H]2C[C@@H](Cc3ccncc3)CN2C(=O)CNC(=O)[C@H](CCN)NC(=O)[C@H](CCC(N)=O)NC(=O)[C@H](Cc2cncnc2)NC(=O)[C@](C)(CC(=O)O)NC(=O)[C@H](Cc2c[nH]c3ccccc23)NC(=O)[C@H](CO)NC(=O)C(C)(C)NC1=O` [Example 188] (cyclo([Phe(4-(5-CO2H-2-pyrimidyl))][Ala(1-bicyclo(1.1.1)pentyl)][Phe(4-COOH)]G[Pro(cis-4-F)][Trp(βS-Me,4-F)][Aib]SW[αMeD][Ala(pyrimidin-5-yl)]Q[Dab]G[dPro(4R-(4-pyridylmethyl))])), the pIC50 was 10.70.

Regarding `C[C@@H](c1c[nH]c2cccc(F)c12)[C@@H]1NC(=O)[C@@H]2C[C@H](F)CN2C(=O)CNC(=O)[C@H](Cc2ccc(C(=O)O)cc2)NC(=O)[C@H](Cc2ccncc2)NC(=O)[C@H](Cc2ccc(-c3ccc(C(=O)O)cc3)cc2)NC(=O)[C@H]2C[C@@H](Cc3ccncc3)CN2C(=O)CNC(=O)[C@H](CO)NC(=O)[C@H](CCC(N)=O)NC(=O)[C@H](CC2CCOCC2)NC(=O)[C@](C)(CC(=O)O)NC(=O)[C@H](Cc2c[nH]c3ccccc23)NC(=O)[C@H](CO)NC(=O)C(C)(C)NC1=O` [Example 189] (cyclo([Bip(4'-COOH)][4Pal][Phe(4-COOH)]G[Pro(cis-4-F)][Trp(βS-Me,4-F)][Aib]SW[αMeD][Ala(4-THP)]QSG[dPro(4R-(4-pyridylmethyl))])), the pIC50 was 10.80.
